Reference: patent US8962608B2, “Cycloalkylnitrile pyrazole carboxamides as janus kinase inhibitors” (Merck Sharp & Dohme Corp., priority 2011, dated 2015)

These compounds were tested against JAK1 (recombinant purified GST-tagged catalytic domain) (Homo sapiens (Human), UniProt P23458) (assay: biochemical).
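Further: biochemical assay with HTRF read-out.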

Sequence of JAK1 (recombinant purified GST-tagged catalytic domain) (P23458 875-1153): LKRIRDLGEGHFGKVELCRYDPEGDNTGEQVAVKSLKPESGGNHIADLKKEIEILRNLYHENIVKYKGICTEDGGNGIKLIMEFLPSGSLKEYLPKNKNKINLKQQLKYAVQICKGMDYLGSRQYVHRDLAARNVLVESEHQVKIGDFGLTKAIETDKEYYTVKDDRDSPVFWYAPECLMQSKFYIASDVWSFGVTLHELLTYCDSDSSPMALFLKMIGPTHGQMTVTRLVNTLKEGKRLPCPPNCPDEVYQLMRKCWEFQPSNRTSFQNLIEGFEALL

SMILES | IC50 [nM]
N#C[C@H]1C[C@@H](N2CCC2)CC[C@@H]1n1cc(C(N)=O)c(Nc2ccc(OC(F)F)cc2)n1 (single isomer, unassigned) [Example 28-103, 1-[(1S,2S,4S or 1R,2R,4R)-4-azetidin-1-yl-2-cyanocyclohexyl]-3-{[4-(difluoromethoxy)phenyl]amino}-1H-pyrazole-4-carboxamide] | 6
C[C@@H]1C[C@@H](C)N1[C@H]1CC[C@H](n2cc(C(N)=O)c(Nc3ccc(C(F)(F)F)cc3)n2)[C@@H](C#N)C1 (single isomer, unassigned) [Example 28-9, 1-{(1S,2S,4S or 1R,2R,4R)-2-cyano-4-[(2R,4R or 2S,4S)-2,4-dimethylazetidin-1-yl]cyclohexyl}-3-{[4-(trifluoromethyl)phenyl]amino}-1H-pyrazole-4-carboxamide] | 2
CC(=O)c1ccc(Nc2nn([C@H]3CCCC[C@@H]3C#N)cc2C(N)=O)cc1 (single isomer, unassigned) [Example 17-27, 3-[(4-acetylphenyl)amino]-1-[(1S,2S or 1R,2R)-2-cyanocyclohexyl]-1H-pyrazole-4-carboxamide] | 0.3
N#C[C@H]1C[C@H](N2CC(O)C2)CC[C@@H]1n1cc(C(N)=O)c(Nc2ccc(S(=O)(=O)C(F)(F)F)cc2)n1 (single isomer, unassigned) [Example 28-150, 1-[(1S,2S,4R or 1R,2R,4S)-2-cyano-4-(3-hydroxyazetidin-1-yl)cyclohexyl]-3-({4-[(trifluoro-methyl)sulfonyl]phenyl}amino)-1H-pyrazole-4-carboxamide] | 0.3
CC(C)CN(CC1CC1)[C@H]1CC[C@@H](n2cc(C(N)=O)c(Nc3ccc(C(F)(F)F)cc3)n2)[C@H](C#N)C1 (single isomer, unassigned) [Example 30-9, l-{(1R,2R,4S or 1S,2S,4R)-2-cyano-4-[(cyclopropylmethyl)(2-methylpropyl)amino]cyclo-hexyl}-3-{[4-(trifluoromethyl)phenyl]amino}-1H-pyrazole-4-carboxamide] | 16
CN(C)[C@H]1CC[C@H](n2cc(C(N)=O)c(Nc3ccc(F)cc3)n2)[C@@H](C#N)C1 (single isomer, unassigned) [Example 28-94, 1-[(1S,2S,4S or 1R,2R,4S)-2-cyano-4-(dimethylamino)cyclohexyl]-3-[(4-fluorophenyl)amino]-1H-pyrazole-4-carboxamide] | 2
CN(C)[C@H]1CC[C@H](n2cc(C(N)=O)c(Nc3ccc(OC(F)F)cc3)n2)[C@@H](C#N)C1 (single isomer, unassigned) [Example 28-104, 1-[(1S,2S,4S or 1R,2R,4R)-2-cyano-4-(dimethylamino)cyclohexyl]-3-{[4-(difluoromethoxy)phenyl]amino}-1H-pyrazole-4-carboxamide] | 0.4
C[C@@](O)(c1ccc(Nc2nn([C@H]3CCCC[C@@H]3C#N)cc2C(N)=O)cn1)C(F)(F)F (single isomer, unassigned) [Example 17-35, 1-[(1S,2S or 1R,2R)-2-cyanocyclohexyl]-3-({6-[(1R or 1S)-2,2,2-trifluoro-1-hydroxy-1-methylethyl]pyridin-3-yl}amino)-1H)-pyrazole-4-carboxamide] | 3
CN(C)[C@@H]1CC[C@H](n2cc(C(N)=O)c(Nc3ccc(Cl)cc3)n2)[C@@H](C#N)C1 (single isomer, unassigned) [Example 28-125, 3-[(4-chlorophenyl)amino]-1-[(1S,2S,4R or 1R,2R,4S)-2-cyano-4-(dimethylamino)cyclohexyl]-1H-pyrazole-4-carboxamide] | 2
CN(C)[C@@H]1CCC(n2cc(C(N)=O)c(Nc3ccc(S(=O)(=O)C(F)(F)F)cc3)n2)[C@@H](C#N)C1 (mixture of isomers) [Example 27-7, 1-[(1S,2S,4R and 1R,2R,4S)-2-cyano-4-(dimethylamino)cyclohexyl]-3-({4-[(trifluoromethyl)sulfonyl]phenyl}amino)-1H-pyrazole-4-carboxamide] | 0.4
N#C[C@H]1CCCC[C@@H]1n1cc(C(N)=O)c(Nc2ccc(OC(F)F)cc2)n1 (single isomer, unassigned) [Example 17-103, 1-[(1S,2S or 1R,2R)-2-cyanocyclohexyl]-3-{[4-(difluoromethoxy)phenyl]amino}-1H-pyrazole-4-carboxamide] | 0.7
CC(C)(C(=O)O)c1ccc(Nc2nn([C@H]3CCC(N4CCC4)C[C@@H]3C#N)cc2C(N)=O)cc1 (single isomer, unassigned) [Example 28-72, 2-[4-({1-[(1S,2S or 1R,2R)-4-azetidin-1-yl-2-cyanocyclohexyl]-4-carbamoyl-1H-pyrazol-3-yl}amino)phenyl]-2-methylpropanoic acid] | 0.45
C[C@]1(O)CC[C@H](n2cc(C(N)=O)c(Nc3ccc(Cl)cc3)n2)[C@@H](C#N)C1 (single isomer, unassigned) [Example 32-10, 3-[(4-chlorophenyl)amino]-1-[(1S,2S,4S or 1R,2R,4R)-2-cyano-4-hydroxy-4-methylcyclohexyl]-1H-pyrazole-4-carboxamide] | 1
CC1(CNC(=O)[C@H]2CC[C@H](n3cc(C(N)=O)c(Nc4ccc(Cl)cc4)n3)[C@@H](C#N)C2)COC1 (single isomer, unassigned) [Example 35-31, 3-[(4-chlorophenyl)amino]-1-[(1S,2S,4S or 1R,2R,4R)-2-cyano-4-{[(3-methyloxetan-3-yl)methyl]carbamoyl}cyclohexyl]-1H-pyrazole-4-carboxamide] | 9
N#C[C@@H]1C[C@H](C(=O)N2CC(F)C2)CC[C@H]1n1cc(C(N)=O)c(Nc2ccc(Cl)cc2)n1 (single isomer, unassigned) [Example 35-33, 3-[(4-chlorophenyl)amino]-1-{(1R,2R,4R or 1S,2S,4S)-2-cyano-4-[(3-fluoroazetidin-1-yl)carbonyl]cyclohexyl}-1H-pyrazole-4-carboxamide] | 9
N#C[C@H]1C[C@H](O)CCC1n1cc(C(N)=O)c(Nc2ccnc(F)c2)n1 (single isomer, unassigned) [Example 25-25, 1-[(1S,2S,4R or 1R,2R,4S)-2-cyano-4-hydroxycyclohexyl]-3-[2-fluoropyridin-4-yl)amino]-1H-pyrazole-4-carboxamide] | 15
CC(C)NC(=O)O[C@@H]1CCC(n2cc(C(N)=O)c(Nc3ccc(F)cc3)n2)[C@@H](C#N)C1 (mixture of isomers) [Example 34-4, (1R,3S,4S and 1S,3R,4R)-4-{4-carbamoyl-3-[(4-fluorophenyl)amino]-1H-pyrazol-1-yl}-3-cyanocyclohexyl propan-2-ylcarbamate] | 2
COCC(C)(C)N(C)[C@H]1CCC(n2cc(C(N)=O)c(Nc3ccc(Cl)cc3)n2)[C@@H](C#N)C1 (single isomer, unassigned) [Example 28-234, 3-[(4-chlorophenyl)amino]-1-{(1S,2S,4S or 1R,2R,4R)-2-cyano-4-[(2-methoxy-1,1-dimethylethyl)(methyl)ami-no]cyclohexyl}-1H-pyrazole-4-carboxamide] | 2
N#C[C@H]1C[C@H](NCC(F)(F)F)CC[C@@H]1n1cc(C(N)=O)c(Nc2ccc(Cl)cc2)n1 (single isomer, unassigned) [Example 28-225, 3-[(4-chlorophenyl)amino]-1-{(1S,2S,4R or 1R,2R,4S)-2-cyano-4-[(2,2,2-trifluoroethyl)amino]cyclohexyl}-1H-pyrazole-4-carboxamide] | 12
